Data set [1] deals with T1, Protein cereblon/Tyrosine-protein kinase receptor UFO (Homo sapiens, UniProt P30530+Q96SW2). In words: PROTAC activity at CRBN/AXL in human MDA-MB-231 cells assessed as induction of AXL degradation incubated upto 20 hrs in the presence of cycloheximide by Western blot analysis. Type of data set: cell-based.
Target sequence in this assay (P30530 26-894 limits assumed): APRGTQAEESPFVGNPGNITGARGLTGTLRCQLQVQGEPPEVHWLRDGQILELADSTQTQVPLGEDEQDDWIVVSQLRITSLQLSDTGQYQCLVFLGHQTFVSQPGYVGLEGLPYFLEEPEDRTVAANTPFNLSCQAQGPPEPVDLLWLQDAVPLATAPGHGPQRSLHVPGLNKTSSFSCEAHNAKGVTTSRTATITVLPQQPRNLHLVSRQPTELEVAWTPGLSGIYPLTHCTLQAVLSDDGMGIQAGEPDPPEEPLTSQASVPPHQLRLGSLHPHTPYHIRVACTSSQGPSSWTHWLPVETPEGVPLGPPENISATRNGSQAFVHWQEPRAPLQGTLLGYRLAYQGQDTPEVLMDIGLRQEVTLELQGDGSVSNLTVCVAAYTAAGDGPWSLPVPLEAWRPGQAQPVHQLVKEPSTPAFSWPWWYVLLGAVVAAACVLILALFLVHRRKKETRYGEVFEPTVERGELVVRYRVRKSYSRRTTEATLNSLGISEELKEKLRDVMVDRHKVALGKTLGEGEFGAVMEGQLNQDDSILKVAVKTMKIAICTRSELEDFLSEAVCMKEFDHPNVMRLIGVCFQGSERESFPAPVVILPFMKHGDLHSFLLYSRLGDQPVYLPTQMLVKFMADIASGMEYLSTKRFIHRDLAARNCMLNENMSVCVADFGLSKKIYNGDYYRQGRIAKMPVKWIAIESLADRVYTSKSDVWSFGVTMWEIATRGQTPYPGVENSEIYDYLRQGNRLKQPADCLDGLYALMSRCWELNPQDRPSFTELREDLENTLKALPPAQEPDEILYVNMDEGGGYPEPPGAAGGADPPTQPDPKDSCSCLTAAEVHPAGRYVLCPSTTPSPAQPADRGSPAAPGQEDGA
Target sequence in this assay (Q96SW2 whole entry partner): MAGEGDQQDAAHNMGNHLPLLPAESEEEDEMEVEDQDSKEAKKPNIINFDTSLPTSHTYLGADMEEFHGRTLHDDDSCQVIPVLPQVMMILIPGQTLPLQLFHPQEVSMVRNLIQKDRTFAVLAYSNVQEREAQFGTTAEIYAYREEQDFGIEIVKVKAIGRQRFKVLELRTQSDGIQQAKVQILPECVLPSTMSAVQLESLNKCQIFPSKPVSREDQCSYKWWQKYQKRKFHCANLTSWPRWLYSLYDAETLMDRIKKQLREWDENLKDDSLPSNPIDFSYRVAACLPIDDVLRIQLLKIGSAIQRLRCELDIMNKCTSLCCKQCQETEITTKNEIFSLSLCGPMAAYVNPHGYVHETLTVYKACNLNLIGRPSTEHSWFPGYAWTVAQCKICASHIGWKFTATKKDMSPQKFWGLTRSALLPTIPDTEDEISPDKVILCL
In data set [2] the target is T2, E3 ubiquitin-protein ligase ZFP91 (Homo sapiens) (UniProt Q96JP5).
T2 sequence (whole entry): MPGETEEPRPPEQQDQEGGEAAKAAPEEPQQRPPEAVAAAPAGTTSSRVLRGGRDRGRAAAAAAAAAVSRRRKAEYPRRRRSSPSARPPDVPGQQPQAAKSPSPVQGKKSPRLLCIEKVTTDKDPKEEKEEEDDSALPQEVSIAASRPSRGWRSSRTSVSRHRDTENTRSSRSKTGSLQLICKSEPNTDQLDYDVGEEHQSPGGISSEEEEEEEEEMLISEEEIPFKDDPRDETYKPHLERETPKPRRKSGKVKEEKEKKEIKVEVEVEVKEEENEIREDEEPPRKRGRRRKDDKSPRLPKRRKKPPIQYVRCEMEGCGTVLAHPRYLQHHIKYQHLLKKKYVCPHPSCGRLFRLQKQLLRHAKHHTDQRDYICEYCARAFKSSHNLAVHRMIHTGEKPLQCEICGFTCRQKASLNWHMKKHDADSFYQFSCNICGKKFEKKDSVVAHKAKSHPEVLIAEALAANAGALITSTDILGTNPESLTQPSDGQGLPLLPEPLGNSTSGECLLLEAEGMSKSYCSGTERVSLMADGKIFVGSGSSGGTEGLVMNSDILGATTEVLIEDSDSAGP
In words: Induction of ZFP91 degradation in human MDA-MB-231 cells at 10 uM incubated for 24 hrs by Western blot analysis. Type of data set: cell-based.

Data set [3] deals with T1, Protein cereblon/Tyrosine-protein kinase receptor UFO. As to the kind of experiment: PROTAC activity at CRBN/AXL in human MDA-MB-231 cells assessed as induction of AXL degradation at 40 nM preincubated with MLN-4924 for 2 hrs followed by compound treatment and measured after 24 hrs by Western blot analysis. Type of data set: cell-based.
Target sequence in this assay (P30530 26-894 limits assumed): as the sequence (P30530 26-894 limits assumed) above
Target sequence in this assay (Q96SW2 whole entry partner): as the sequence (Q96SW2 whole entry partner) above
Data set [4] has as its system MDA-MB-231. In words: Induction of cell cycle arrest in human MDA-MB-231 cells assessed as G0/G1 phase cells at 100 nM incubated for 24 hrs by PI staining based flow cytometric analysis (reference value: 63.32 to 64.94%). Type of data set: functional.
The nature of data set [5]: Toxicity in Balb/c nude mouse xenografted with human MDA-MB-231 cells assessed as mortality at 10 to 20 mg/kg, ip administered for 22 days and measured 24 hrs post last dose. Type of data set: organism-based. The following applies: in vivo, 552 h, dose 10-20 mg/kg, time 23 day.
The subject of data set [6] is MDA-MB-231. In words: Induction of cell cycle arrest in human MDA-MB-231 cells assessed as G0/G1 phase cells at 33.3 nM incubated for 24 hrs by PI staining based flow cytometric analysis (reference value: 63.32 to 64.94%). Format: functional.
Data set [7] concerns MDA-MB-231. As to the kind of experiment: Induction of cell cycle arrest in human MDA-MB-231 cells assessed as G0/G1 phase cells at 300 nM incubated for 24 hrs by PI staining based flow cytometric analysis (reference value: 63.32 to 64.94%). Type of data set: functional.
Data set [8] addresses T1, Protein cereblon/Tyrosine-protein kinase receptor UFO. In words: PROTAC activity at CRBN/AXL in human MDA-MB-231 cells assessed as induction of AXL degradation at 10 nM preincubated with more than 5 uM of N-(4-((6,7-dimethoxyquinazolin-4-yl)oxy)-3-fluorophenyl)-6-ethyl-1,2-dimethyl-4-oxo-1,4-dihydroquinoline-3-carboxamide for 6 hrs followed by compound treatment and measured after 24 hrs by Western blot analysis. Type of data set: cell-based.
Target sequence in this assay (P30530 26-894 limits assumed): as the sequence (P30530 26-894 limits assumed) above
Target sequence in this assay (Q96SW2 whole entry partner): as the sequence (Q96SW2 whole entry partner) above

Data set [9] concerns MDA-MB-231. As to the kind of experiment: Antitumor activity against human MDA-MB-231 cells xenografted in Balb/c nude mouse assessed as tumor growth inhibition at 20 mg/kg, ip administered for 22 days and measured 24 hrs post last dose relative to control. Type of data set: functional. Particulars: MDA-MB-231, 552 h, time 23 day, read-out: TGI.
For data set [10], the system named is MDA-MB-231. As to the kind of experiment: Antiproliferative activity against human MDA-MB-231 cells assessed as reduction in cell viability preincubated with N-(4-((6,7-dimethoxyquinazolin-4-yl)oxy)-3-fluorophenyl)-6-ethyl-1,2-dimethyl-4-oxo-1,4-dihydroquinoline-3-carboxamide for 6 hrs followed by compound treatment and measured after 24 hrs by CCK8 assay. Type of data set: functional, cell-based.

The target of data set [11] is T1, Protein cereblon/Tyrosine-protein kinase receptor UFO. As to the kind of experiment: PROTAC activity at CRBN/AXL in human MDA-MB-231 cells assessed as induction of AXL degradation by measuring ubiquitination of AXL at 40 nM preincubated with MG-132 for 2 hrs followed by compound treatment and measured after 24 hrs by coimmunoprecipitation analysis. Format: cell-based.
Target sequence in this assay (P30530 26-894 limits assumed): as the sequence (P30530 26-894 limits assumed) above
Target sequence in this assay (Q96SW2 whole entry partner): as the sequence (Q96SW2 whole entry partner) above

For data set [12], the system named is MDA-MB-231. As to the kind of experiment: Induction of cell cycle arrest in human MDA-MB-231 cells assessed as accumulation of cell at G2/M phase at 100 nM incubated for 24 hrs by PI staining based flow cytometric analysis (reference value: 24.34 to 24.44%). Format: functional.
For data set [13], the target named is ALK tyrosine kinase receptor (Homo sapiens, UniProt Q9UM73). In words: Inhibition of ALK (unknown origin).
Sequence of ALK tyrosine kinase receptor (Q9UM73 whole entry): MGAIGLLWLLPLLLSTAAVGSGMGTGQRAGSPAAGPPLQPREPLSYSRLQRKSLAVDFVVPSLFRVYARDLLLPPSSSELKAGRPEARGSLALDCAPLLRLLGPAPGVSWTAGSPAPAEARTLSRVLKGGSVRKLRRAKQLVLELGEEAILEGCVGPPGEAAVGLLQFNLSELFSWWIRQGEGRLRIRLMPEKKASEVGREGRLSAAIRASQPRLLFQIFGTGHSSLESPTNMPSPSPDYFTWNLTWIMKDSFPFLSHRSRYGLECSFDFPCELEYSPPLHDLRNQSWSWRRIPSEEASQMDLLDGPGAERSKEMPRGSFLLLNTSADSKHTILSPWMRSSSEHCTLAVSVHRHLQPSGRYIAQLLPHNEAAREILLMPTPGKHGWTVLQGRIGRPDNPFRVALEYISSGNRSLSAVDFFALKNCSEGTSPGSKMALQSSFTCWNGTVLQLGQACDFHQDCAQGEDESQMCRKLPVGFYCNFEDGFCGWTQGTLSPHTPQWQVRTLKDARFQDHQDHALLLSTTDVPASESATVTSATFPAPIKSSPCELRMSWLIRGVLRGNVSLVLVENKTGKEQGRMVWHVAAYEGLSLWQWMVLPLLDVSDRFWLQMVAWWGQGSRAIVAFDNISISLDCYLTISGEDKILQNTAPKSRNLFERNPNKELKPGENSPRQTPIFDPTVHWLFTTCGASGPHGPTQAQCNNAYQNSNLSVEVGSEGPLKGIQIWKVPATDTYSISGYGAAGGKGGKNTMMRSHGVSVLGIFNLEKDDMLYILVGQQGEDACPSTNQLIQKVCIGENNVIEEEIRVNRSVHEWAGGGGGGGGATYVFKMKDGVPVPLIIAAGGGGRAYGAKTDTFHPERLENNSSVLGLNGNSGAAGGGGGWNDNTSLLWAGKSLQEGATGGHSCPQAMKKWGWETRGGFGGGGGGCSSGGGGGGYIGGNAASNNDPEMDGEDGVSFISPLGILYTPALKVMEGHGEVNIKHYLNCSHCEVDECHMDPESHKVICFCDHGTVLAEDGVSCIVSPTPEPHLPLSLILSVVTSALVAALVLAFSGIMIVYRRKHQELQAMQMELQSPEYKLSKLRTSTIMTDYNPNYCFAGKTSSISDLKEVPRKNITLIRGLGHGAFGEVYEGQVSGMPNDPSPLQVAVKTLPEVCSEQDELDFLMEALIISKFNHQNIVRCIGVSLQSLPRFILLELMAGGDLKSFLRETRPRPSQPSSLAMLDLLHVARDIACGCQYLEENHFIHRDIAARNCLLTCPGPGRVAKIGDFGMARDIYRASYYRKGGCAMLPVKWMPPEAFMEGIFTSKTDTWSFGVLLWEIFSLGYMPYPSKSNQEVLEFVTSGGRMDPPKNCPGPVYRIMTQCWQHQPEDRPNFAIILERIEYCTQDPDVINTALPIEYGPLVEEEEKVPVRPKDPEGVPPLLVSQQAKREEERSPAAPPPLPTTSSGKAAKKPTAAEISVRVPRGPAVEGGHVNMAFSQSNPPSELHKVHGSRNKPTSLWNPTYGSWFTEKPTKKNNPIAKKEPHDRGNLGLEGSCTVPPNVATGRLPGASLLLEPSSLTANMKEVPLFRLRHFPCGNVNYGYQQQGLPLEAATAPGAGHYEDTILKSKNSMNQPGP
The subject of data set [14] is MDA-MB-231. As to the kind of experiment: Induction of apoptosis in human MDA-MB-231 cells assessed as necrotic cells at 33.3 nM incubated for 48 hrs by Annexin V-PE staining based flow cytometric analysis (reference value: 2.64 to 3.23%). Format: functional.
In another data set the test system is MDA-MB-436. In words: Antiproliferative activity against human MDA-MB-436 cells expressing AXL assessed as inhibition of cell growth incubated for 72 hrs by CCK8 assay. Type of data set: functional, cell-based. Particulars: MDA-MB-436, 72 h.
The target of data set [15] is T1, Protein cereblon/Tyrosine-protein kinase receptor UFO. As to the kind of experiment: PROTAC activity at CRBN/AXL in human MDA-MB-231 cells assessed as induction of AXL degradation incubated for 24 hrs by immunoblot analysis. Type of data set: cell-based.
Data set [16] deals with MDA-MB-231. As to the kind of experiment: Induction of cell cycle arrest in human MDA-MB-231 cells assessed as accumulation of cell at G2/M phase at 300 nM incubated for 24 hrs by PI staining based flow cytometric analysis (reference value: 24.34 to 24.44%). Type of data set: functional.
The subject of data set [17] is MDA-MB-231. As to the kind of experiment: Induction of cell cycle arrest in human MDA-MB-231 cells assessed as S phase cells at 300 nM incubated for 24 hrs by PI staining based flow cytometric analysis (reference value: 9.64 to 10.79%). Format: functional.
The test system of data set [18] is MDA-MB-231. As to the kind of experiment: Antitumor activity against human MDA-MB-231 cells xenografted in Balb/c nude mouse assessed as tumor growth inhibition at 10 mg/kg, ip administered for 22 days and measured 24 hrs post last dose relative to control. The following applies: MDA-MB-231, 552 h, time 23 day, read-out: TGI. Type of data set: functional.
The target in data set [19] is T1, Protein cereblon/Tyrosine-protein kinase receptor UFO. In words: PROTAC activity at CRBN/AXL in human MDA-MB-231 cells assessed as induction of AXL degradation by measuring maximal efficacy at 0.08 uM incubated for 24 hrs by Western blot analysis relative to control. Type of data set: cell-based.
Target sequence in this assay (P30530 26-894 limits assumed): as the sequence (P30530 26-894 limits assumed) above
Target sequence in this assay (Q96SW2 whole entry partner): as the sequence (Q96SW2 whole entry partner) above
Data set [20] concerns the target Eukaryotic peptide chain release factor GTP-binding subunit ERF3A (Homo sapiens) (UniProt P15170). In words: Induction of GSPT1 degradation in human MDA-MB-231 cells at 0.016 to 10 nM incubated for 24 hrs by Western blot analysis. Format: cell-based. The following applies: dose 0.016-10 nM.
The subject of data set [21] is MDA-MB-231. In words: Induction of apoptosis in human MDA-MB-231 cells assessed as late apoptotic cells at 300 nM incubated for 48 hrs by Annexin V-PE staining based flow cytometric analysis (reference value: 0.32 to 0.82%). Format: functional.
Data set [22] relates to MDA-MB-231. In words: Induction of apoptosis in human MDA-MB-231 cells assessed as late apoptotic cells at 100 nM incubated for 48 hrs by Annexin V-PE staining based flow cytometric analysis (reference value: 0.32 to 0.82%). Format: functional.

The structures appear in SMILES notation. The source made the active and inactive calls. The calls are words filed in the database; no cut-off is given here.

Sequence of Eukaryotic peptide chain release factor GTP-binding subunit ERF3A (Homo sapiens) (P15170 whole entry): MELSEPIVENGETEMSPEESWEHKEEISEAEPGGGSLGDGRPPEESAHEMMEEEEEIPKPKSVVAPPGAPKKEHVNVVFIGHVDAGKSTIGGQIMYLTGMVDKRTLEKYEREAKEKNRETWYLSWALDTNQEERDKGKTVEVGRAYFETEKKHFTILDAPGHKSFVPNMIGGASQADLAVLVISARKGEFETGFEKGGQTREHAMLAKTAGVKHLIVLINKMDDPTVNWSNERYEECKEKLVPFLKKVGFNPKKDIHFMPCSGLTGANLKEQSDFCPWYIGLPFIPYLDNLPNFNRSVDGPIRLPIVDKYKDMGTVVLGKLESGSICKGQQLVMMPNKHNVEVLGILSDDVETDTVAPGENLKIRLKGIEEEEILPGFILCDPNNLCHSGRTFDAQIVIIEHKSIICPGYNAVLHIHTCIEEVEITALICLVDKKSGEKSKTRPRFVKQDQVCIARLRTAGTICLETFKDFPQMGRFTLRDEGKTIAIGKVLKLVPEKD

With `CCc1ccc2c(c1)c(=O)c(C(=O)Nc1ccc(Oc3ncnc4cc(OCCCCCC(=O)Nc5ccc6c(c5)CN(C5CCC(=O)NC5=O)C6=O)c(OC)cc34)c(F)c1)c(C)n2C` (centres undefined), the result in data set [1] and in data set [20] was Active. In addition, the result (in [2]; in data set [3]; in data set [8]; in the data set with MDA-MB-231 [10]; in data set [11]) was inactive. Also, the Activity with MDA-MB-231 [4] is recorded as 46.81%; in data set [5], “Non-Toxic”; in the data set on MDA-MB-231 [6], 63.32%; with MDA-MB-231 [7], 47.51%; in the data set on MDA-MB-231 [12] it was 31.16%; in the data set with MDA-MB-231 [14] it was 1.2%. Also, the Activity entry in data set [15] is “Dose-Dependent Effect”; in the data set with MDA-MB-231 [16] it was 29.55%; with MDA-MB-231 [17] it was 16.29%; in the data set on MDA-MB-231 [21] it was 0.79%; in the data set on MDA-MB-231 [22], 0.88%. Besides, the inhibition in vivo at 20 mg/kg in the data set on MDA-MB-231 [9] was 62.5%. Moreover, the IC50 came out at 4.94 nM in data set [13] and 5 nM in the data set on MDA-MB-436. The EC50 in data set [15] turned out to be 5 nM. Moreover, the inhibition in vivo at 10 mg/kg in the data set with MDA-MB-231 [18] was 40.9%. For the same compound, the Emax in data set [19] stood at 80.5%.

Source of the values: ChEMBL document CHEMBL5316328, “Discovery of AXL Degraders with Improved Potencies in Triple-Negative Breast Cancer (TNBC) Cells” (J Med Chem, 2023).
